Source: patent US20250152559A1, “METHODS FOR TREATING MYC-AMPLIFIED CANCER” (The Governing Council of the University of Toronto, priority 2023, published 2025)

Key:
Assay in all cases: PrestoBlue cell viability, 72-hour treatment, limiting dilution
D425 = assay type: cell-based; conditions: Homo sapiens; D425, G3MB-MYC; read-out: Brequinar IC50
Description: (§1) SU_MB002, NSC194, NSC197 and NSC201FT, MBT375 and MED411FHTC were maintained in Neurocult Complete (NCC) media (Stem Cell Technologies; catalogue #05751). D425 and D458 were maintained in Dulbecco's […] (DMEM) containing 10% fetal bovine serum (FBS). HD-MB03 were maintained in NCC containing 10% FBS. All cell lines were conditioned in NCC for a minimum of 48 hours before experimentation. SU_MB002 and HD-MB03 G3MB-MYC PDOX were obtained from collaborators as kind gifts and are frequently passaged in vivo. SU_MB002, a treatment-refractory group 3 MB acquired at autopsy was received from Dr. Yoon-Jae Cho. Dr. Till Milde provided HD-MB03, a treatment-naïve group 3 MBs. ICB1299 group 4 MB cells were obtained as a gift from Silvia Marino's laboratory^62. MBT375 was established in-house from a surgical specimen of group 4 MB, which was engrafted in the cerebellum of mice for serial propagation. Nanostring genotyping was used to confirm group 4 medulloblastoma identity. MED411FHTC PDOX were procured from Dr. Olson's brain tumor research lab. D425 and D458 were obtained from the ATCC. All cell lines were fingerprint verified by short tandem repeat (STR) profiling. NSC194, NSC197 and NSC201FT were derived in-house from donor fetal brain tissues^63.
(§2) For assessment of viability, cells were seeded into 96-well plates at a density of 1,000 cells per well. Viability was measured by adding PrestoBlue™ diluted 1:10 (ThermoFisher Scientific; Catalogue #A13261) followed by a 4-hour incubation. Relative fluorescence intensity was determined via background correction. To assess tumorsphere forming capacity, cells were seeded at a low density (200 cells per well) and incubated for 3-5 days. Tumorspheres were manually counted thereafter.

D458 = assay type: cell-based; conditions: Homo sapiens; D458, G3MB-MYC; read-out: Brequinar IC50
Description: as §1, §2

HD-MB03 = assay type: cell-based; conditions: Homo sapiens; HD-MB03, G3MB-MYC; read-out: Brequinar IC50
Description: as §1, §2

MED411-FHTC = assay type: cell-based; conditions: Homo sapiens, G3MB-MYC, read-out: Brequinar IC50
Description: as §1, §2

SU_MB002 = assay type: cell-based, human; conditions: for potency on tumor cell viability: SU_MB002 tumor cells
Description: as §1, §2

Compound: Cc1c(-c2ccc(-c3ccccc3F)cc2)nc2ccc(F)cc2c1C(=O)O [Brequinar]
- IC50 (D425): 122 nM
- IC50 (D458): 110 nM
- IC50 (HD-MB03): 54.4 nM
- IC50 (MED411-FHTC): 137 nM
- IC50 (SU_MB002; Homo sapiens, SU_MB002, G3MB-MYC, read-out: Brequinar IC50): 302 nM
- tumor cell proliferation and viability with uridine supplementation (SU_MB002; SU_MB002, media with uridine hydrochloride (100 μM)): rescues
- potency on tumor cell viability (SU_MB002): nanomolar range

Compound: COc1ccc([C@H]2c3[nH]c4ccc(Cl)cc4c3CCN2C(=O)Oc2ccc(Cl)cc2)cc1 [PTC299]
- potency on tumor cell viability (SU_MB002): nanomolar range
